The text below walks through data of patent US20140378416A1, “SILYL-CONTAINING HETEROCYCLIC COMPOUNDS AND METHODS OF USE THEREOF FOR THE TREATMENT OF VIRAL DISEASES” (priority 2011, published 2014).

Assay [1] concerns HCV replicon 1a. In words: Cell-based HCV replicon assay (TaqMan), genotype 1a replicon. Particulars: Hepatitis C virus, 72 h, HCV 1a replicon cells, replicon RNA by TaqMan on day 3; EC90 = concentration for ΔCT=3.2 over baseline. The protocol: (§1) Measurement of inhibition by compounds of the present invention was performed using the HCV replicon system. Several different replicons encoding different HCV genotypes or mutations were used. In addition, potency measurements were made using different formats of the replicon assay, including different ways of measurements and different plating formats. See Jan M. Vrolijk et al., A replicons-based bioassay for the measurement of interferons in patients with chronic hepatitis C, 110 J. VIROLOGICAL METHODS 201 (2003); Steven S. Carroll et al., Inhibition of Hepatitis C Virus RNA Replication by 2′-Modified Nucleoside Analogs, 278(14) J. BIOLOGICAL CHEMISTRY 11979 (2003). However, the underlying principles are common to all of these determinations, and are outlined below.
(§2) Compounds of the present invention were assayed for cell-based anti-HCV activity using the following protocol. Replicon cells were seeded at 5000 cells/well in 96-well collagen I-coated Nunc plates in the presence of the test compound. Various concentrations of test compound, typically in 10 serial 2-fold dilutions, were added to the assay mixture, with the starting concentration ranging from 250 μM to 1 μM. The final concentration of DMSO was 0.5%, fetal bovine serum was 5%, in the assay media. Cells were harvested on day 3 by the addition of 1× cell lysis buffer (Ambion cat #8721). The replicon RNA level was measured using real time PCR (TaqMan® assay). The amplicon was located in 5B. The PCR primers were: 5B.2F, ATGGACAGGCGCCCTGA (SEQ. ID NO. 1); 5B.2R, […] (SEQ. ID NO. 2); the probe sequence was FAM-labeled CACGCCATGCGCTGCGG (SEQ. ID NO. 3). GAPDH RNA was used as endogenous control and was amplified in the same reaction as NS5B (multiplex PCR) using primers and VIC-labeled probe recommended by the manufacturer (PE Applied Biosystem). The real-time […] reactions were run on ABI PRISM 7900HT Sequence Detection System using the following program: 48° C. for 30 minutes, 95° C. for 10 minutes, 40 cycles of 95° C. for 15 sec, 60° C. for 1 minute. The ACT values (CT5B-CTGAPDH) were plotted against the concentration of test compound and fitted to the sigmoid dose-response model using XLfit4 (MDL). EC50 was defined as the concentration of inhibitor necessary to achieve ΔCT=1 over the projected baseline; EC90 the concentration necessary to achieve ΔCT=3.2 over the baseline. Alternatively, to quantitate the absolute amount of replicon RNA, a standard curve was established by including serially diluted T7 transcripts of replicon RNA in the Taqman assay. All TaqMan® reagents were from PE Applied Biosystems. Such an assay procedure was described in detail in e.g. Malcolm et al., Antimicrobial Agents and Chemotherapy 50: 1013-1020 (2006).
(§3) HCV replicon EC50 assay data for various replicons and mutants was calculated for selected compounds of the present invention using this method and is provided in the tables above herein.

Assay [2] deals with HCV replicon 1b. The assay is described as follows: Cell-based HCV replicon assay (TaqMan), genotype 1b replicon. The settings on record: Hepatitis C virus, 72 h, HCV 1b replicon cells, replicon RNA by TaqMan on day 3; EC90 = concentration for ΔCT=3.2 over baseline. The protocol:
as §1, §2, §3

The subject of assay [3] is HCV replicon 1a Y93H. In words: Cell-based HCV replicon assay (TaqMan), genotype 1a Y93H mutant replicon. Particulars: Hepatitis C virus, 72 h, read-out: 1a Y93H EC90, HCV 1a Y93H mutant replicon cells, replicon RNA by TaqMan on day 3; EC90 = concentration for ΔCT=3.2 over baseline. The protocol:
as §1, §2, §3

For assay [4], the system named is HCV replicon 2b. The assay is described as follows: Cell-based HCV replicon assay (TaqMan), genotype 2b replicon. The settings on record: Hepatitis C virus, 72 h, read-out: 2b EC90, HCV 2b replicon cells, replicon RNA by TaqMan on day 3; EC90 = concentration for ΔCT=3.2 over baseline. The protocol:
as §1, §2, §3

Bounds are passed on as bounds.

In the case of `C[Si]1(C)CN[C@H](c2ncc(-c3ccc(-c4ccc(-c5cnc([C@@H]6CCCN6)[nH]5)cc4)cc3)[nH]2)C1` [Compound 2], the results for the 90% effect concentration (EC90) in assay [1] and in assay [2] were over 100 nM and over 1000 nM, respectively.

`COC(=O)N[C@H](C(=O)N1CCC[C@H]1c1ncc(-c2ccc(-c3ccc(-c4cnc([C@@H]5C[Si](C)(C)CN5C(=O)[C@@H](NC(=O)OC)C(C)C)[nH]4)cc3)cc2)[nH]1)C(C)C` [Compound 3]: the EC90 turned out to be 0.16 nM in assay [1], 0.005 nM in assay [2] and 398 nM in assay [3].

For the compound `COC(=O)N[C@H](C(=O)N1CC(F)(F)C[C@H]1c1ncc(-c2ccc(-c3ccc(-c4cnc([C@@H]5C[Si](C)(C)CN5C(=O)[C@@H](NC(=O)OC)C(C)C)[nH]4)cc3)cc2)[nH]1)C(C)C` [Compound 4], the EC90 in assay [1] is 0.1 nM; in assay [2], 0.007 nM; in assay [3], 272 nM.

As to `COC(=O)N[C@H](C(=O)N1C[Si](C)(C)C[C@H]1c1ncc(-c2ccc(-c3ccc(-c4cnc([C@@H]5[C@H]6CC[C@H](C6)N5C(=O)[C@@H](NC(=O)OC)C(C)C)[nH]4)cc3)cc2)[nH]1)C(C)C` [Compound 5], the figures for the EC90 in assay [1], in assay [2] and in assay [3] were 0.21 nM, 0.004 nM and 203 nM, respectively.

As to `COC(=O)N[C@H](C(=O)N1C[Si](C)(C)C[C@H]1c1ncc(-c2ccc(-c3ccc(-c4cnc([C@@H]5C[Si](C)(C)CN5C(=O)[C@@H](NC(=O)OC)C(C)C)[nH]4)cc3)cc2)[nH]1)C(C)C` [Compound 6], the EC90 is 0.98 nM in assay [1], 0.015 nM in assay [2] and over 1000 nM in assay [3].

For the compound `COC(=O)N[C@H](C(=O)N1C[C@H](F)C[C@H]1c1ncc(-c2ccc(-c3ccc(-c4cnc([C@@H]5C[Si](C)(C)CN5C(=O)[C@@H](NC(=O)OC)C(C)C)[nH]4)cc3)cc2)[nH]1)C(C)C` [Compound 7], the EC90 in assay [1] was determined as 0.77 nM; in assay [2] it was 0.009 nM; in assay [3], 229 nM.

Turning to `COC(=O)N[C@H](C(=O)N1CCC[C@H]1c1ncc(-c2ccc(-c3ccc4[nH]c([C@@H]5C[Si](C)(C)CN5C(=O)[C@@H](NC(=O)OC)C(C)C)nc4c3)cc2)[nH]1)C(C)C` [Compound 9], the figures for the EC90 in assay [1], in assay [2] and in assay [3] were over 1 nM, under 1 nM and over 1000 nM, respectively.

With `COC(=O)N[C@@H](C(=O)N1CCC[C@@H]1c1ncc(-c2ccc(-c3ccc(-c4cnc([C@H]5C[Si](C)(C)CN5C(=O)[C@H](NC(=O)OC)C5CC5)[nH]4)cc3)cc2)[nH]1)C1CC1` [Compound 23], the EC90 was 1.16 nM in assay [1], 1000 nM in assay [3] and 550 nM in assay [4].

On to `CC(C)(C)OC(=O)N1C[Si](C)(C)C[C@H]1c1ncc(-c2ccc(-c3ccc(-c4[nH]c([C@@H]5C[C@H]6C[C@H]6N5C(=O)OC(C)(C)C)nc4F)cc3)cc2)[nH]1` [Compound 42], for which the figures for the EC90 in assay [1], in assay [3] and in assay [4] were over 1 nM, over 1000 nM and over 1000 nM, respectively.

Consider `COC(=O)N[C@H](C(=O)N1C[Si](C)(C)C[C@H]1c1ncc(-c2ccc(-c3ccc(-c4[nH]c([C@@H]5C[C@H]6C[C@H]6N5C(=O)[C@@H](NC(=O)OC)C(C)C)nc4F)cc3)cc2)[nH]1)C(C)C` [Compound 44], for which the EC90 in assay [1] stood at 0.17 nM; in assay [3], 285 nM; in assay [4] it was 168 nM.

For the compound `CC(C)(C)OC(=O)N1C[Si](C)(C)C[C@H]1c1ncc(-c2ccc(-c3ccc(-c4cnc([C@@H]5C[C@H]6C[C@H]6N5C(=O)OC(C)(C)C)[nH]4)cc3)cc2)[nH]1` [Compound 46], the figures for the EC90 in assay [1], in assay [3] and in assay [4] were over 1000 nM, over 1000 nM and 422 nM, respectively.

`COC(=O)N[C@H](C(=O)N1C[C@H](F)C[C@H]1c1ncc(-c2ccc(C#Cc3ccc(-c4cnc([C@@H]5C[Si](C)(C)CN5C(=O)OC(C)(C)C)[nH]4)cc3)cc2)[nH]1)C(C)C` [Compound 56]: the EC90 was 681 nM in assay [1] and over 1000 nM in assay [3].

Consider `COC(=O)N[C@H](C(=O)N1C[C@H](F)C[C@H]1c1ncc(-c2ccc(C#Cc3ccc(-c4cnc([C@@H]5C[Si](C)(C)CN5)[nH]4)cc3)cc2)[nH]1)C(C)C` [Compound 57], for which the EC90 in assay [1] is 780 nM; in assay [3], over 1000 nM.

As for `CC(C)(C)OC(=O)N1C[Si](C)(C)C[C@H]1c1ncc(-c2ccc(-c3ccc(-c4[nH]c([C@@H]5CCCN5C(=O)OC(C)(C)C)nc4C4CC4)cc3)cc2)[nH]1` [Compound 61], the EC90 in assay [1] amounted to 81 nM; in assay [3] it was 655 nM.

With `CC(C)(C)OC(=O)N1C[Si](C)(C)C[C@H]1c1ncc(-c2ccc(-c3ccc(-c4ncc([C@@H]5C[C@H]6C[C@H]6N5C(=O)OC(C)(C)C)[nH]4)cc3)cc2)[nH]1` [Compound 68], the EC90 in assay [1] and in assay [3] was over 1000 nM throughout.

With `COC(=O)N[C@H](C(=O)N1CCC[C@H]1c1ncc(-c2ccc(-c3ccc(-c4cnc([C@@H]5C[Si](C)(C)CN5C(=O)[C@@H](NC(=O)OC)C(C)C)[nH]4)c(OC)c3)cc2)[nH]1)C(C)C` [Compound 70], the values for the EC90 in assay [1], in assay [2] and in assay [3] were over 1 nM, 0.006 nM and over 1000 nM, respectively.

Turning to `COC(=O)N[C@H](C(=O)N1C[Si](C)(C)C[C@H]1c1ncc(-c2ccc(-c3ccc4[nH]c([C@@H]5CC(F)(F)CN5C(=O)[C@@H](NC(=O)OC)C(C)C)nc4c3)cc2F)[nH]1)C(C)C` [Compound 71], the results for the EC90 in assay [1], in assay [2] and in assay [3] were over 1 nM, 0.005 nM and over 1000 nM, respectively.

Consider `COC(=O)N[C@H](C(=O)N1CCC[C@H]1c1cnc(-c2ccc(-c3ccc(-c4cnc([C@@H]5C[Si](C)(C)CN5C(=O)[C@@H](NC(=O)OC)C(C)C)[nH]4)cc3)cc2)[nH]1)C(C)C` [Compound 72], for which the EC90 in assay [1] was determined as 0.092 nM; in assay [2], 0.005 nM; in assay [3] it was 330 nM.

In the case of `COC(=O)N[C@H](C(=O)N1C[Si]2(CCCC2)C[C@H]1c1cnc(-c2ccc(-c3ccc(-c4cnc([C@@H]5CCCN5C(=O)[C@@H](NC(=O)OC)C(C)C)[nH]4)cc3)cc2)[nH]1)C(C)C` [Compound 73], the EC90 in assay [1] was 0.38 nM; in assay [2], 0.006 nM; in assay [3], 973 nM.

As to `COC(=O)N[C@H](C(=O)N1CC(F)(F)C[C@H]1c1cnc(-c2ccc(-c3ccc(-c4cnc([C@@H]5C[Si](C)(C)CN5C(=O)[C@@H](NC(=O)OC)C(C)C)[nH]4)cc3)cc2)[nH]1)C(C)C` [Compound 74], the EC90 in assay [1] is 0.27 nM; in assay [3] it was 644 nM.

In the case of `CC(C)(C)OC(=O)N1CCC[C@H]1C(=O)Nc1n[nH]c2ccc(-c3ccc(-c4cnc([C@@H]5C[Si](C)(C)CN5C(=O)OC(C)(C)C)[nH]4)cc3)cc12` [Compound 76], the EC90 in assay [1] is over 1000 nM; in assay [3], over 10000 nM.

Consider `CC(C)(C)OC(=O)N1CCC[C@H]1C(=O)Nc1nn(C(=O)OC(C)(C)C)c2ccc(-c3ccc(-c4cnc([C@@H]5C[Si](C)(C)CN5C(=O)OC(C)(C)C)[nH]4)cc3)cc12` [Compound 77], for which the figures for the EC90 in assay [1] and in assay [3] were over 1000 nM and over 10000 nM, respectively.

As for `CC(C)(C)OC(=O)N1CCC[C@H]1c1cnc(-c2ccc3c(c2)[Si](C)(C)c2cc(-c4cnc([C@@H]5CCCN5C(=O)OC(C)(C)C)[nH]4)ccc2-3)[nH]1` [Compound 80], the EC90 was over 1 nM in assay [1] and 467 nM in assay [2].

As to `COC(=O)N[C@H](C(=O)N1CCC[C@H]1c1cnc(-c2ccc3c(c2)[Si](C)(C)c2cc(-c4cnc([C@@H]5CCCN5C(=O)[C@@H](NC(=O)OC)C(C)C)[nH]4)ccc2-3)[nH]1)C(C)C` [Compound 82], the concentration for an effect of 90% (EC90) stood at 0.076 nM in assay [1], 0.043 nM in assay [2] and 811 nM in assay [3].
